Data published in PMC10307885, “A Phase 1/2 trial of SRA737 (a Chk1 inhibitor) administered orally in patients with advanced cancer” (British Journal of Cancer, 2023).
Entries after “also recorded” stand apart in the source; their conditions may differ.

Legend:
[1] = test system: advanced solid tumours (CRC, HGSOC, NSCLC, mCRPC, HNSCC); experiment: Tumour response by RECIST 1.1; type: in vivo, human
Description: Radiologic tumour assessments were carried out every 8 weeks, and clinical evaluations and serum tumour markers assessed every 4 weeks. Tumours were assessed using the Response Evaluation Criteria in Solid Tumors version 1.1 (RECIST 1.1). Clinical response data were summarized in cohorts defined by tumour type (CRC, HGSOC, NSCLC, mCRPC, HNSCC, or other disease). The Safety Evaluable population included all patients who received at least one dose of SRA737. The Response Evaluable population included patients who had measurable disease at baseline, received at least 75% of planned SRA737 doses in Cycle 1 and had at least one post-baseline disease assessment or discontinued treatment due to disease progression, adverse event, or death.

[2] = test system: patients with advanced solid tumours; experiment: Phase 1/2 dose-escalation/expansion study: safety, TEAEs (NCI CTCAE v4.03), DLT, MTD, RP2D; type: in vivo
Source text: The objectives of this first-in-human, Phase 1/2, open-label, dose-escalation study of SRA737 as a single agent were to establish the safety profile, define the maximum tolerated dose (MTD) and the recommended Phase 2 dose (RP2D) and schedule, and to evaluate preliminary efficacy in prospectively selected genetically defined patients enrolled in indication-specific expansion cohorts. Secondary objectives included defining the pharmacokinetic (PK) profile of SRA737.
The study used an accelerated titration design in dose escalation beginning with single subject dose-level cohorts. Doubling of the SRA737 dose was permitted in the subsequent cohort if a dose level was determined to be safe by the cohort review committee consisting of the lead investigator, study investigators representing the site(s) currently enrolling patients, and representatives of the study sponsor. In the event of any SRA737-related adverse event Grade 2 or greater toxicity during Cycle 1, the cohort was to be expanded to 3 to 6 subjects. Thereafter the study followed a rolling 6 design wherein once the first subject completed the 7-day observation period following the first dose of SRA737, subsequent subjects in that cohort started treatment. […] Enrolment of expansion cohorts at the highest dose level determined to be safe and tolerable was initiated prior to the completion of dose escalation and determination of MTD or RP2D.
A single dose of SRA737 was given at one visit on Day −7 to Day −4 (prior to the start of Cycle 1) for PK assessments. SRA737 was then administered orally on a continuous daily dosing schedule in 28-day cycles. An accelerated titration design was used with single-patient dose-escalation cohorts starting with 20 mg SRA737 administered once daily (QD) in the first cohort, with dose doubling in subsequent single-patient cohorts. If a patient had SRA737-related Grade 2 toxicity in a dose level cohort during Cycle 1, that cohort was expanded to 3 to 6 patients, and subsequent cohorts followed a rolling six design.
Patients were assessed for DLT from the first SRA737 dose (Day −7 to Day −4) until the end of Cycle 1 (up to 35 days).
Expansion cohorts including up to 20 patients with one of the 6 specified indication-specific tumour types, were treated at SRA737 doses selected by the cohort review committee based on all available safety and PK data; expansion doses were at or below the maximum tolerated dose (MTD) from the dose-escalation phase. Patients could continue treatment until disease progression or discontinuation from study due to unacceptable toxicity, investigator/sponsor decision, or withdrawal of consent.
Safety assessments including adverse events, laboratory parameters, electrocardiograms (ECGs), and echocardiograms were conducted throughout treatment and until 30 days after the last study treatment or initiation of new anticancer treatment.
The Safety Evaluable population included all patients who received at least one dose of SRA737.
The DLT window is defined from the first dose (Day -7 to Day -4) until the end of Cycle 1 (up to 35 days).
A DLT is defined as any highly probably or probably SRA737-related event of: […]

[3] = 1300 mg QD cohort, three patients enrolled
[4] = 49 patients treated at SRA737 doses >800 mg QD

`N#Cc1cnc(Nc2cc(NC[C@H]3CNCCO3)c(C(F)(F)F)cn2)cn1` [SRA737, (R)-5-((4-((morpholin-2-ylmethyl)amino)-5-(trifluoromethyl)pyridin-2-yl)amino)pyr azine-2-carbonitrile] was tested, and the “disease control rate (at least four cycles with at least stable disease as best response)” value (from here on “disease control rate”) ([1]; HGSOC, 11/26) was 42.3%, the “disease control rate” value ([1]; HNSCC, 3/4) was 75.0% and the “disease control rate” value ([1]; NSCLC, 3/8) was 37.5%. For the same compound, the “patients with reduction or no increase in sum of RECIST target tumour diameters and/or stable disease for 4 or more cycles” value ([1]; in vivo) was 29 patients, the “reductions in tumour size” value ([1]; in vivo) was “up to 29 % reduction” and the “disease control rate” value ([1]; mCRPC, 8/13) was 61.5%. For the same compound, the “RECIST responses (complete or partial)” value ([1]; monotherapy, expansion cohort patients with predefined genetic mutations) was “no complete or partial RECIST responses; also recorded: no partial or complete RECIST responses”, the “Dose-limiting toxicity (DLT)” value ([2]; 500 mg BID, one patient, four evaluable for DLT) was “Grade 4 thrombocytopenia” and the “Grade 1–2 TEAEs of diarrhoea” value ([2]; 800 mg SRA737 dose level) was 68 % of patients. For the same compound, the “Grade 1–2 TEAEs of nausea” value ([2]; 800 mg SRA737 dose level) was 78 % of patients, the “Grade 1–2 TEAEs of vomiting” value ([2]; 800 mg SRA737 dose level) was 50 % of patients and the “patients with Grade 3 diarrhoea (GI toxicity above Grade 2)” value ([2]; 800 mg dose level) was “one”. For the same compound, the “Dose-limiting toxicities (DLTs)” value ([2]; 1000 mg QD dose-escalation cohort (or any lower-dose cohorts)) was “No DLTs”, the “patients requiring dose reduction to 600 mg due to GI intolerability” value ([2]; 1000 mg QD, 10 evaluable patients) was 3 patients and the “Grade 1–2 TEAEs of diarrhoea” value ([2]; 1000 mg SRA737 dose level) was 72 % of patients. The “Grade 1–2 TEAEs of nausea” value ([2]; 1000 mg SRA737 dose level) was 65 % of patients, the “Grade 1–2 TEAEs of vomiting” value ([2]; 1000 mg SRA737 dose level) was 63 % of patients and the “patients with Grade 3 diarrhoea (GI toxicity above Grade 2)” value ([2]; 1000 mg dose level) was 1 patient. For the same compound, the “patients with both Grade 3 nausea and vomiting” value ([2]; 1000 mg dose level) was “single patient”, the “patients with dose-limiting GI intolerability (Grade 1–2 nausea, vomiting, and/or diarrhoea)” value [2, 3] was 2 patients and the “patients with dose-limiting Grade 3 neutropenia” value [2, 3] was 1 patient. The “discontinued due to SRA737-related TEAEs” value ([2]; 16 patients of 107) was 15.0%, the “Adverse events leading to treatment discontinuation” value ([2]; 34 patients of 107) was 31.8% and the “Grade 3 or higher TEAE related to SRA737: fatigue” value [2, 4] was 4%. For the same compound, the “Grade 3 or higher TEAE related to SRA737: neutropenia” value [2, 4] was 10%, the “Grade 3 or higher TEAE related to SRA737: rash/rash maculopapular combined” value [2, 4] was 6% and the “Any SRA737-related Grade ≥3 treatment-emergent adverse event (TEAE)” value ([2]; Overall (N = 107)) was 33 (30.8) n (%). The “Any SRA737-related treatment-emergent adverse event (TEAE), any grade” value ([2]; Overall (N = 107)) was 98 (91.6) n (%), the “SRA737-related TEAE of Grade 3 or higher: Aspartate aminotransferase increased” value ([2]; Overall (N = 107)) was 2 (1.9) n (%) and the “SRA737-related TEAE of Grade 3 or higher: Diarrhoea” value ([2]; Overall (N = 107)) was 2 (1.9) n (%). For the same compound, the “SRA737-related TEAE of Grade 3 or higher: Dyspnoea” value ([2]; Overall (N = 107)) was 2 (1.9) n (%), the “SRA737-related TEAE of Grade 3 or higher: Fatigue” value ([2]; Overall (N = 107)) was 2 (1.9) n (%) and the “SRA737-related TEAE of Grade 3 or higher: Lymphocyte count decreased” value ([2]; Overall (N = 107)) was 3 (2.8) n (%). The “SRA737-related TEAE of Grade 3 or higher: Neutropenia” value ([2]; Overall (N = 107)) was 9 (8.4) n (%), the “SRA737-related TEAE of Grade 3 or higher: Rash” value ([2]; Overall (N = 107)) was 3 (2.8) n (%) and the “SRA737-related TEAE of Grade 3 or higher: Rash maculopapular” value ([2]; Overall (N = 107)) was 3 (2.8) n (%). For the same compound, the “SRA737-related TEAE of Grade 3 or higher: Thrombocytopenia” value ([2]; Overall (N = 107)) was 3 (2.8) n (%), the “SRA737-related TEAE of any grade: Anaemia” value ([2]; Overall (N = 107)) was 16 (15.0) n (%) and the “SRA737-related TEAE of any grade: Decreased Appetite” value ([2]; Overall (N = 107)) was 19 (17.8) n (%). For the same compound, the “SRA737-related TEAE of any grade: Diarrhoea” value ([2]; Overall (N = 107)) was 67 (62.6) n (%), the “SRA737-related TEAE of any grade: Fatigue” value ([2]; Overall (N = 107)) was 41 (38.3) n (%) and the “SRA737-related TEAE of any grade: Nausea” value ([2]; Overall (N = 107)) was 64 (59.8) n (%). For the same compound, the “SRA737-related TEAE of any grade: Neutropenia” value ([2]; Overall (N = 107)) was 17 (15.9) n (%), the “SRA737-related TEAE of any grade: Vomiting” value ([2]; Overall (N = 107)) was 49 (45.8) n (%) and the “Any SRA737-related Grade ≥3 treatment-emergent adverse event (TEAE)” value ([2]; SRA737 dose > 800 mg (N = 49)) was 19 (38.8) n (%). The “Any SRA737-related treatment-emergent adverse event (TEAE), any grade” value ([2]; SRA737 dose > 800 mg (N = 49)) was 47 (95.9) n (%) and the “SRA737-related TEAE of Grade 3 or higher: Aspartate aminotransferase increased” value ([2]; SRA737 dose > 800 mg (N = 49)) was 0 n (%).
